Where two headings read alike, the source gives them in different places. One block for each compound: values may come before it.
Target: T1, cloned human dopamine D3 receptors (Homo sapiens, UniProt P35462)
T1 construct: expressed in transfected cells; membrane homogenate
Assay: [N-Methyl-3H]Spiroperidol binding to cloned human dopamine D3 receptors (Protocol 1)
Method in brief: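 Radioligand displacement with [N-methyl-3H]spiroperidol used a physiological-salt Tris buffer (0.05 M, pH 7.7; NaCl 120 mM, KCl 5 mM, CaCl2 2 mM, MgCl2 1 mM) and membranes of a high-expressing stable CHO clone carrying human D3. Total ligand concentration came from measured added CPM; 0.1% ascorbic acid was optional for oxidizable compounds.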

[1] = the 15th table, read-out: D3 Ki
[2] = the 14th table, read-out: D3 Ki
[3] = the 23rd table, read-out: D3 Ki
[4] = the 16th table, read-out: D3 Ki
[5] = the 21st table, read-out: D3 Ki
[6] = the 13th table, unit inferred, read-out: D3Ki
[7] = the 22nd table, read-out: D3 Ki

T1 sequence (P35462 whole entry): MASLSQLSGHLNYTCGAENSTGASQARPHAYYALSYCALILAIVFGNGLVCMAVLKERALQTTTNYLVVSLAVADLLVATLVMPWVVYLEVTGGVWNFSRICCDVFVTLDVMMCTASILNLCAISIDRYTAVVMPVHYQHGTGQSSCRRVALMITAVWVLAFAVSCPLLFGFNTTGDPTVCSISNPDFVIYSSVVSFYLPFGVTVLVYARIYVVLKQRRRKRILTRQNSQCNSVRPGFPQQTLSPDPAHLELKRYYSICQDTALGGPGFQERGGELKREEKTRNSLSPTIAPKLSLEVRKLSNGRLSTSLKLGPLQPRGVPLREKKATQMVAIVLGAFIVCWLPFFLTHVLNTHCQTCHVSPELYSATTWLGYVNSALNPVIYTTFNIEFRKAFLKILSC

Ki (read-out: D3K1): 30 nM
SMILES: O=C(NCCCCN1CCN(c2c(Cl)sc3cc(C(F)(F)F)ccc23)CC1)c1ccc(Cl)cc1 [compound 815568]

SMILES: O=C(NCCCCN1C2CCC1CC(c1noc3ccccc13)C2)c1ccc(Cl)cc1 (stereo not shown) [compound 816523]
Ki [1]: 165 nM

Ki (Table 2, read-out: D3K1): 297 nM | Ki (read-out: D3K1): 297 nM | Ki [2]: 297 nM
SMILES: O=C(N[C@@H](CO)CCCN1CCN(c2csc3cc(C(F)(F)F)ccc23)CC1)c1cc2ccccc2o1 [compound 815677]

Ki [3]: 19.2 nM
SMILES: CSCCCNC[C@@H]1C[C@H]1CN1CCN(c2csc3cc(C(F)(F)F)ccc23)CC1 [compound 832280]

Ki (Table 2, read-out: D3K1): 57 nM | Ki [4]: 57 nM
SMILES: O=C(NCCCCN1CCCN(c2csc3cc(F)ccc23)CC1)c1c2ccccc2cc2ccccc12 [compound 826762]

Ki [5]: 74.7 nM
SMILES: COc1ccc(C(=O)NCCCCN2[C@H](C)CN(c3csc4cc(C(F)(F)F)ccc34)C[C@@H]2C)cc1OC [compound 826930]

Ki [5]: 165 nM
SMILES: C[C@@H]1CN(c2csc3cc(C(F)(F)F)ccc23)C[C@H](C)N1CCCCNC(=O)c1ccc(OC(F)(F)F)cc1 [compound 827040]

Ki (read-out: D3K1): 31 nM
SMILES: O=C(NC/C=C/CN1CCN(c2csc3cc(C(F)(F)F)ccc23)CC1)c1ccsc1 [compound 827710]

Ki [6]: 48 nM
SMILES: Cc1oc(-c2ccccc2)cc1C(=O)NCCCCN1CCCN(c2csc3cc(C(F)(F)F)ccc23)CC1 [S980662]

Ki (the 18th table, read-out: D3 Ki): 134 nM
SMILES: O=C(NCc1sccc1CN1CCN(c2csc3cc(F)ccc23)CC1)c1cccnc1Cl [compound 826313]

Ki (the 25th table, read-out: D3 Ki): 29.3 nM
SMILES: CCCCOC(=O)NCC1CC1CN1CCC(c2noc3ccsc23)CC1 (stereo not shown) [compound 831696]

Ki (read-out: D3K1): 35 nM
SMILES: O=C(NCCCCN1CCN(c2c(Cl)sc3cc(C(F)(F)F)ccc23)CC1)c1ccccc1C(F)(F)F [compound 815573]

Ki [6]: 0.51 nM
SMILES: O=C(NCCCCN1CCCN(c2csc3cc(F)ccc23)CC1)c1ccc2c(c1)C(=O)c1ccccc1-2 [S982538]

Ki [7]: 8.57 nM
SMILES: O=C(NCCCCN1CCN(c2n[nH]c3ccsc23)CC1)c1ccc(-c2ccccc2)cc1 [compound 825153]

Ki (read-out: D3K1): 117 nM
SMILES: O=C(NCCCCN1CCN(c2c(Cl)sc3cc(C(F)(F)F)ccc23)CC1)c1ccccc1Br [compound 815578]

Ki [6]: 69 nM
SMILES: CC(C)(C)c1ccc(C(=O)NCCCCN2CCCN(c3csc4cc(C(F)(F)F)ccc34)CC2)cc1 [S980642]

Ki [7]: 38.9 nM
SMILES: O=C(NCCCCN1CCN(c2noc3ccsc23)CC1)c1ccc(Cl)cc1 [compound 829675]

Ki (read-out: D3K1): 92 nM
SMILES: CC1(C)C(CNC(=O)c2ccccc2)C1CN1CCN(c2csc3cc(C(F)(F)F)ccc23)CC1 (stereo not shown) [compound 826275]

Ki (Table 2, read-out: D3K1): 293 nM
SMILES: O=C(NCC(CO)CCN1CCN(c2csc3cc(C(F)(F)F)ccc23)CC1)c1ccoc1 (stereo not shown) [818925ES]

Ki [5]: 96.1 nM
SMILES: C[C@@H]1CN(c2csc3cc(C(F)(F)F)ccc23)C[C@H](C)N1CCCCNC(=O)c1ccc(C(F)(F)F)cc1 [compound 826936]

Ki (Table 2, read-out: D3K1): 2.7 nM | Ki (read-out: D3K1): 2.7 nM | Ki [2]: 2.7 nM
SMILES: O=C(NCCCCCCN1CCN(c2csc3cc(C(F)(F)F)ccc23)CC1)c1ccc2[nH]ccc2c1 [compound 816316]

SMILES: CCCc1ccc(C(=O)NCCCCN2C3CCC2CC(c2noc4cc(F)ccc24)C3)cc1 (stereo not shown) [compound 816341]
Ki [1]: 50.9 nM

Ki (read-out: D3K1): 67 nM
SMILES: O=C(COc1ccccc1)NC/C=C\CN1CCN(c2csc3cc(C(F)(F)F)ccc23)CC1 [compound 826347]

Ki [6]: 25.4 nM
SMILES: O=C(NCCCCCN1CCCN(c2csc3cc(F)ccc23)CC1)c1n[nH]c2ccccc12 [S984511]

Ki (the 24th table, read-out: D3 Ki): 65.5 nM
SMILES: O=S(=O)(NCC1CC1CN1CCC(c2noc3ccsc23)CC1)c1ccc(OC(F)(F)F)cc1 (stereo not shown) [compound 831513]

Ki [6]: 0.132 nM
SMILES: CC1(c2ccc(C(=O)NCCCCN3CCCN(c4csc5cc(F)ccc45)CC3)cc2)NC(=O)NC1=O (stereo not shown) [S982513]

Ki (read-out: D3K1): 58 nM
SMILES: CC1(C)C(CNC(=O)c2cccs2)C1CN1CCN(c2csc3cc(C(F)(F)F)ccc23)CC1 (stereo not shown) [compound 826276]

Ki [3]: 126 nM
SMILES: c1ccc(OCCNCC2CC2CN2CCC(c3noc4ccsc34)CC2)cc1 (racemic) [832296FH]

Ki (Table 2, read-out: D3K1): 5.85 nM | Ki [4]: 5.85 nM
SMILES: O=C(NCCCCCN1CCCN(c2csc3cc(F)ccc23)CC1)c1cc(-c2ccco2)nc2ccccc12 [compound 827159]

Ki [7]: 63.8 nM
SMILES: Cc1csc2c(N3CCN(CCCCNC(=O)CCCc4ccccc4)CC3)noc12 [compound 830748]

Ki (read-out: D3K1): 14 nM | Ki [2]: 14 nM
SMILES: O=C(NCCCCCN1CCN(c2csc3cc(C(F)(F)F)ccc23)CC1)c1cccc(C(F)(F)F)c1 [compound 826770]

Ki [6]: 161 nM
SMILES: O=C(NCCCCCN1CCC(c2noc3ccsc23)CC1)c1cc2ccccc2s1 [compound 816196]

Ki [6]: 4.18 nM
SMILES: O=C(NCCCCN1CCCN(c2csc3cc(F)ccc23)CC1)c1ccsc1 [S977829]
